The results in this text go back to ChEMBL document CHEMBL1201862, “PubChem BioAssay data set” (2004).

In data set [1] the target is FAD-linked sulfhydryl oxidase ALR (Homo sapiens, UniProt P55789). The data set can be described thus: ALR-catalysed DTT oxidation blockers – biochemical, H2O2 detection, luminescence, cherry-pick, dose response (AID 493248).
The nature of data set [2]: alpha-synuclein stem-loop luciferase translation blockers – H4 neuroglioma cells, luminescence, confirmation (AID 1988). Type of data set: functional, cell-based.
Data set [3] can be described thus: Luminescence Cell-Based Dose Response HTS to Identify Inhibitors of 5'UTR Stem-Loop Driven Prion Protein mRNA Translation in H4 Neuroglioblastoma Cells. [Related pubchem assays: 1827 (Project Summary), 1813 (Primary HTS)]. The data set is classed as functional.
A short description of data set [4]: luciferase reporter signal suppression in cells – H4 neuroglioma cells, luminescence, dose response (AID 1990). The data set is classed as functional, cell-based.
Data set [5] deals with T1, Mannose-6-phosphate isomerase (Homo sapiens, UniProt P34949).
T1 sequence (P34949 whole entry): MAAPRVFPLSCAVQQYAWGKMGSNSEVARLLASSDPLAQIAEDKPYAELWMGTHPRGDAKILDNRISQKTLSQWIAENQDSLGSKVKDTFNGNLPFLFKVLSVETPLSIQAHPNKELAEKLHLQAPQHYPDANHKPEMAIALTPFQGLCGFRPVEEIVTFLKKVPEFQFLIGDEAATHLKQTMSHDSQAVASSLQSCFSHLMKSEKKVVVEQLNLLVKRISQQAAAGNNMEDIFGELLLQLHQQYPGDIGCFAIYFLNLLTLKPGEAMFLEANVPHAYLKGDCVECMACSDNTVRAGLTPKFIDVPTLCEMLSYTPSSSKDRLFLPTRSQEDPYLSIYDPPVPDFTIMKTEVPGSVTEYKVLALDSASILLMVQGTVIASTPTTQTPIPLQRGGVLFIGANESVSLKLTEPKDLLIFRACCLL
The data set can be described thus: MPI inhibition at elevated mannose 6-phosphate – biochemical, fluorescence intensity, high mannose 6-phosphate, primary screen (AID 1220).

Data set [6] can be described thus: NIH-3T3 fibroblast cytotoxicity, dose response, cytotoxicity control, cell-based, fluorescence, Alamar Blue, secondary assay (AID 2327).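 Further: NIH-3T3 mouse fibroblasts cultured with fluconazole at 8 µg/mL.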 Type of data set: functional.
Data set [7] is described as follows: fluconazole-exposed Candida albicans growth modulators – fluorescence, retest, confirmation (AID 2467). The data set is classed as functional, cell-based.
The next data set has as its target T2, Streptokinase A (Streptococcus pyogenes serotype M1, UniProt P10520).
T2 sequence (P10520 whole entry): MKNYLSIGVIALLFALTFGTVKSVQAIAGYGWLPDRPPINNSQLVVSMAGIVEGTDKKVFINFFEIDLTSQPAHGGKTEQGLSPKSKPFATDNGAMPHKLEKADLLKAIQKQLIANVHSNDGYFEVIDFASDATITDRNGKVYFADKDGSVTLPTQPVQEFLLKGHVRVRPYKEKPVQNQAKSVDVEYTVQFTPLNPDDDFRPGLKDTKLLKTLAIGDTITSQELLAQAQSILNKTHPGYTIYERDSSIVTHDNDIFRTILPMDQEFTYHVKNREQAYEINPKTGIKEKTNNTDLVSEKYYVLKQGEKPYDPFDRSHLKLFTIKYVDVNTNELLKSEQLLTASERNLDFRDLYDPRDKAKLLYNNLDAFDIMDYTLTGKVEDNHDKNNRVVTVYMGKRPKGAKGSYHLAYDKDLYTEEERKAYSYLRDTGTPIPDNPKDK
The experiment in a line: viability-normalized secreted streptokinase activity reduction – plasminogen activation absorbance, OD405, dose response (AID 1914).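 Further: secreted streptokinase activity via plasminogen activation per viability signal from cell pellet.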 The data set is classed as functional, Streptococcus pyogenes M1 GAS.

Data set [8] deals with Streptococcus sp. 'group A'. The data set can be described thus: Streptococcus pyogenes SK(-)GAS viability under kanamycin – luminescence, BacTiterGlo, confirmation, counter-screen for streptokinase expression inhibitor project, dose response (AID 1900). Type of data set: functional, organism-based.
A further data set has as its system Streptococcus. The data set can be described thus: GAS UMAA2166 growth inhibition – luminescence, BacTiterGlo, counter-screen for streptokinase expression inhibitor project, dose response (AID 1915).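 Further: potency for reduction of bacterial viability or growth.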 The data set is classed as functional, organism-based.
The target of a further data set is Cytochrome P450 2C9 (Homo sapiens, UniProt P11712).
Data set [9] in a line: reduction of Shn3 3'UTR-driven luciferase in osteoblasts – cell-based, Clone20 osteoblasts, firefly luciferase, cherry-picked, dose response (AID 624132).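 Further: firefly luciferase luminescence from reporter carrying the Shn3 3'UTR in osteoblasts.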 The data set is classed as functional.
The nature of data set [10]: non-specific 3'UTR reporter inhibition in Clone20-Shn3RL – cell-based, Renilla luciferase, cherry-picked, counter-screen for Shn3 inhibitor project, dose response (AID 624133). Type of data set: functional.
Data set [11] in a line: loss of viability in HepG2 cells – cell-based, CellTiter-Glo, cherry-picked, cytotoxicity control for Shn3 inhibitor project, dose response (AID 624134). The data set is classed as functional.
Another data set concerns the target Nonstructural protein 1 (Influenza A virus, UniProt Q194T2). The data set is classed as functional, Influenza A virus (A/California/07/2009(H1N1)).
Data set [12] deals with Luciferin 4-monooxygenase (Photinus pyralis, UniProt P08659). The experiment in a line: inhibition of purified Photinus pyralis luciferase – biochemical, luminescence, dose response (AID 1891).
A short description of data set [13]: Luminescence Cell-Based Dose Confirmation HTS to Identify Inhibitors of Platelet Dense Granule Release. [Related pubchem assays: 1663 (Primary HTS), 1678 (Summary of Project)]. Type of data set: functional.
For data set [14], the target named is T3, Rac GTPase-activating protein 1 (Homo sapiens, UniProt Q9H0H5).
T3 sequence (Q9H0H5 whole entry): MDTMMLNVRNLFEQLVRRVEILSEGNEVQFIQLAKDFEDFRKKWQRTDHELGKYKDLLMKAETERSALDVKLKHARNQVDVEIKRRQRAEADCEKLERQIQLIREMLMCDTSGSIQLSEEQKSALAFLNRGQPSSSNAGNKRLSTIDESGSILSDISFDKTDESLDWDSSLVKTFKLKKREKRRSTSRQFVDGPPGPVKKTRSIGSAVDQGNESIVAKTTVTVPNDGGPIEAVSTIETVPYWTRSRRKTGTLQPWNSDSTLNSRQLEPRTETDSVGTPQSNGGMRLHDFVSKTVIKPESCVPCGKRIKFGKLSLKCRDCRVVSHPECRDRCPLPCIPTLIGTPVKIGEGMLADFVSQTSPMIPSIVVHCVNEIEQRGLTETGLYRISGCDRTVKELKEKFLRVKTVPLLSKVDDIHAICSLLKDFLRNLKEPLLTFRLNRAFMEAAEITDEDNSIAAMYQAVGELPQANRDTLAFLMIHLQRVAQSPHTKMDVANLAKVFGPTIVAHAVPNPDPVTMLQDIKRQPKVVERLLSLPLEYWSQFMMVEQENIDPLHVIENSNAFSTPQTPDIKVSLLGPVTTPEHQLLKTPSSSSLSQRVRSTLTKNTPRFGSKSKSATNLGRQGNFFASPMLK
The experiment in a line: blockers of MgcRacGAP-driven Rac1 GTP hydrolysis – biochemical, ADP Hunter fluorescence, primary and confirmatory, confirmation (AID 624330). The data set is classed as functional.

Another data set addresses Cytochrome P450 3A4 (Homo sapiens, UniProt P08684).
In data set [15] the target is T4, Corticotropin-releasing factor receptor 2/Corticotropin-releasing factor-binding protein (Homo sapiens, UniProt P24387+Q13324).
T4 sequence (Q13324 whole entry): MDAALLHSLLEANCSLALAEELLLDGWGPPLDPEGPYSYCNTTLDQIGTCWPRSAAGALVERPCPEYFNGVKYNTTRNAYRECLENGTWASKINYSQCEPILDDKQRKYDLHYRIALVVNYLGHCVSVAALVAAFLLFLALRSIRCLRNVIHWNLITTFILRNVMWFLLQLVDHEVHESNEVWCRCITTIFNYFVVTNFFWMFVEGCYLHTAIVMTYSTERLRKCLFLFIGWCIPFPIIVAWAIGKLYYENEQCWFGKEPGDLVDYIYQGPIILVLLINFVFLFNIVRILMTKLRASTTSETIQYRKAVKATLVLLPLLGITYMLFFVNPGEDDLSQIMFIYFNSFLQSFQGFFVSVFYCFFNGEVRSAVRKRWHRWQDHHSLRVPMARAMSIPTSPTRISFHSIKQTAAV
T4 sequence (P24387 whole entry): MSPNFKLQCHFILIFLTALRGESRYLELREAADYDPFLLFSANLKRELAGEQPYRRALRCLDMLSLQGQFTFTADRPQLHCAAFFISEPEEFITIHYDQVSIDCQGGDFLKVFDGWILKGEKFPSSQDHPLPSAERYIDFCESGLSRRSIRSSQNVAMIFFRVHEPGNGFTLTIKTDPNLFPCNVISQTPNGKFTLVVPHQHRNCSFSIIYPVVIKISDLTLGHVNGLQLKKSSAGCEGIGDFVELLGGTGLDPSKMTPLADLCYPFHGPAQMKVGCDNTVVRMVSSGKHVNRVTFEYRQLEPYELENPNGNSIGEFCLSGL
The data set can be described thus: activators of CRF receptor 2 with binding protein – uHTS hits, confirmation (AID 602473). The data set is classed as functional. The conditions noted are these: read-out: EC50_Mean.

For data set [16], the target named is T4, Corticotropin-releasing factor receptor 2/Corticotropin-releasing factor-binding protein. The experiment in a line: Dose Response confirmation of uHTS hits for small molecule antagonists of the CRF-binding protein and CRF-R2 receptor complex. Type of data set: functional. The conditions noted are these: read-out: IC50_Mean.
A short description of data set [17]: Trypanosoma cruzi growth suppression in host cells – NIH3T3 host cells, beta-gal luminescence, confirmation (AID 2044).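 Further: intracellular parasites grown in NIH/3T3 mouse fibroblasts as host cells; luminescent beta-galactosidase reporter signal from transgenic T. cruzi replicating inside host cells; inhibitors lower the luminescence signal.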 Type of data set: functional, cell-based.
Data set [18] can be described thus: NIH3T3 cell viability loss – ATP luminescence, mouse fibroblasts, counter-screen, dose response (AID 2010).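 Further: cells exposed to compound for about 90 hours before reading.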 Type of data set: functional, cell-based.
Data set [19] is described as follows: viability of HCT116 lacking mutant beta-catenin – cell-based, human colon tumor, dose response (AID 1045).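 Further: HCT116 colon tumor cells with beta catenin knocked out; cells exposed to compound for 60 hours.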 The data set is classed as functional.
A short description of data set [20]: viability of PTEN-deleted HCT116 cells – cell-based, HCT116 PTEN knockout, dose response (AID 1047).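 Further: HCT116 colon tumor cells with PTEN knocked out; cells exposed to compound for 60 hours before readout; potency for loss of cell viability measured by luminescence.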 Type of data set: functional.

SMILES strings stand for the structures. Calls of active or inactive are those of the source. For most assays here, no stated cut-off is given here; in the data, actives have a measured EC50 and inactives only a lower limit.

Sequence of FAD-linked sulfhydryl oxidase ALR (P55789 whole entry): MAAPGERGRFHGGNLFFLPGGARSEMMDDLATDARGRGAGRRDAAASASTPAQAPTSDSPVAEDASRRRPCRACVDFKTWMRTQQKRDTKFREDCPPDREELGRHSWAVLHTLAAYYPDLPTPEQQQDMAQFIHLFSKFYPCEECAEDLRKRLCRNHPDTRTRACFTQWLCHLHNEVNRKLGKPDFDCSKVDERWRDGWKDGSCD
Sequence of Cytochrome P450 2C9 (P11712 whole entry): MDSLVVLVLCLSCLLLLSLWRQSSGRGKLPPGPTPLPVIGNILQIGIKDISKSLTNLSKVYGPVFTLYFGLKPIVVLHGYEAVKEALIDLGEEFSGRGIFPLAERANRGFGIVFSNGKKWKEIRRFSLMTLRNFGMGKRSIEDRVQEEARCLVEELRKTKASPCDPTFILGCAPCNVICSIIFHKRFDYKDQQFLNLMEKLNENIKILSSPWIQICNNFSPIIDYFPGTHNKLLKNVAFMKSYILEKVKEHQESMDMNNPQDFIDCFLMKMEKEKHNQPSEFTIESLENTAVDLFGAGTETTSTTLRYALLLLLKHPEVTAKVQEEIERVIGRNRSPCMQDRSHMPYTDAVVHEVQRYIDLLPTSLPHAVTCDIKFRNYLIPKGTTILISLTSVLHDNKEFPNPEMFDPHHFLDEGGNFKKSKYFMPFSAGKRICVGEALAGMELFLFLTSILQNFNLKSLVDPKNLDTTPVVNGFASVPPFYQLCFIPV
Sequence of Cytochrome P450 3A4 (P08684 whole entry): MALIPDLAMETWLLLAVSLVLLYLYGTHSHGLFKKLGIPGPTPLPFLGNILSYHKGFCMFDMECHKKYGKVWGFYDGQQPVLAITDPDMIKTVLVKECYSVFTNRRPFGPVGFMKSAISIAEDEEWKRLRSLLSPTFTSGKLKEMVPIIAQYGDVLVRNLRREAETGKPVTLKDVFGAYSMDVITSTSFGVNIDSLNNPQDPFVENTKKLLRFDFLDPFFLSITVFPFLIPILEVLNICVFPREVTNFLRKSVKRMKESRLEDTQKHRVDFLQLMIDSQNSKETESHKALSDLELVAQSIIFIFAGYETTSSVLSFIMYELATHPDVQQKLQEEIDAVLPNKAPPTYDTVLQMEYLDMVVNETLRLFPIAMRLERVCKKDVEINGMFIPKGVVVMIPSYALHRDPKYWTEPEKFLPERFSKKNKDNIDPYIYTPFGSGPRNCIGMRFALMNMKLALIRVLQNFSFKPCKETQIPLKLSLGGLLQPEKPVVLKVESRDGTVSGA
Sequence of Luciferin 4-monooxygenase (P08659 whole entry): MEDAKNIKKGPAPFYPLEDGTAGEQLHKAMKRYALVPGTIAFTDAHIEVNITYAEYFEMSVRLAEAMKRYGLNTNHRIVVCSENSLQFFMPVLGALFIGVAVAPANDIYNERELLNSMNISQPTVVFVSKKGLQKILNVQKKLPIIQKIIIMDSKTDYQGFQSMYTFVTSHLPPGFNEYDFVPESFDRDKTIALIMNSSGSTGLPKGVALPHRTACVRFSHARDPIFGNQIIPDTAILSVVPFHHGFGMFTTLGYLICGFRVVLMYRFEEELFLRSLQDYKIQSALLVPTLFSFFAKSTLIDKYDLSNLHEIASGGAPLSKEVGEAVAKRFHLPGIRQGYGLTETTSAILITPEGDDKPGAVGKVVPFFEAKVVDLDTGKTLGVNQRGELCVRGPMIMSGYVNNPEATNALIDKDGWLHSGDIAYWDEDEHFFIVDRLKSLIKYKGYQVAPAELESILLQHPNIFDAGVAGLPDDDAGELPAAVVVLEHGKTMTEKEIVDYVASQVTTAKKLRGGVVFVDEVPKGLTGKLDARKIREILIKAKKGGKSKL
Sequence of Nonstructural protein 1 (Q194T2 whole entry): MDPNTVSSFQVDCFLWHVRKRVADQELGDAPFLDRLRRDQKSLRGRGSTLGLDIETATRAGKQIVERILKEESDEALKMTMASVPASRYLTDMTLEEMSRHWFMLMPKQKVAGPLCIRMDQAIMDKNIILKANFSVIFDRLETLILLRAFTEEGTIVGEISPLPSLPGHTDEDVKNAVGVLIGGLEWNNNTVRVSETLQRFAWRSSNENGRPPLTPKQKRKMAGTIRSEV

With `Cc1[nH]c2ccc(-c3nnc(S)n3C)cc2c1C`, the half-maximal activity concentration (AC50) in [1] was 0.664 µM (active). For the same molecule, the EC50 is 14 µM (active) in [2], 19.2 µM (active) in [3] and 8.15 µM (active) in [4].

For the molecule `Oc1ccc(N2CCN(c3nnnn3-c3ccccc3)CC2)cc1`, in data set [1], the concentration at half-maximal activity (AC50) is 1.9 µM (active).

As to `CC(=O)N1CCN(S(=O)(=O)c2cccc(C(=O)Nc3ccccc3N3CCCC3)c2)CC1`, the concentration at half-maximal activity (AC50) in data set [1] is 3.27 µM (active).

As to `CN(C(=S)Nc1ccc(Oc2ccccc2)cc1)c1ccc(O)cc1`, the IC50 in data set [5] is listed as > 50 µM (not active).

Take `CC1CN(C(S)=Nc2cccc([N+](=O)[O-])c2)CC(C)O1` (stereo not given): the results for the EC50 in data set [6] and in data set [7] were > 160 µM (inactive) and > 38 µM (not active), respectively.

Turning to `O=C(CCS(=O)(=O)c1ccccc1)Nc1nc2cc3c(cc2s1)OCCO3`, the EC50 in data set [6] was > 160 µM (inactive); at Streptokinase A, > 150 µM (not active); in [8] it was 79.6 µM (active); in data set [7], 1.75 µM (active); with Streptococcus, > 150 µM (not active).

For the molecule `COc1ccccc1-c1cc(NCc2ccccc2)ncn1`, the AC50 result on Cytochrome P450 2C9 is given as “inconclusive”.

As to `Oc1cc(-c2ccncc2)cc2cccnc12`, the results for the AC50 in [9], in data set [10] and in data set [11] were 5.4 µM (active), 3.51 µM (active) and 10.9 µM (active), respectively. Further, the IC50 on Nonstructural protein 1 was 11.9 µM (active).

Consider `CCOc1cc(CNc2ccc3[nH]c(O)nc3c2)ccc1OCC(=O)NC(C)(C)C`, for which the EC50 in [12] is > 112 µM (not active); in data set [13] it was 12 µM (active). In addition, the IC50 in data set [5] was > 50 µM (not active); in [14] it was 60.2 µM (active).

Turning to `CCSc1nnc(NC(=O)c2cccc(S(=O)(=O)N(C)c3ccc(C)cc3)c2)s1`, the AC50 in data set [1] is 1.12 µM (active).

On to `Cc1cc(C)cc(C(=N)c2ccccc2Cc2cccc3ccccc23)c1`, for which the half-maximal activity concentration (AC50) entry on Cytochrome P450 2C9 was “inconclusive”; on Cytochrome P450 3A4, 2.51 µM (inconclusive).

In the case of `CC1=C(C(N)=O)C(c2ccc(C)o2)C(C(N)=O)=C(C)N1`, the EC50 is > 160 µM (inactive) in data set [6] and > 38 µM (not active) in data set [7].

`COc1ccc(NC(=O)CNC(=O)c2nn(-c3ccc(OC)cc3OC)c(=O)c3ccccc23)c(OC)c1`: the EC50 was 132 µM (active) in data set [6] and 1.55 µM (active) in data set [7].

For the molecule `Cc1ccc(NCCC(=O)c2cccc([N+](=O)[O-])c2)c(C)c1`, in [5], the IC50 is on record as > 50 µM (not active).

Regarding `Cc1ccc(C)c2sc(NC(=O)c3ccc(N4CCCCC4)c([N+](=O)[O-])c3)nc12`, the AC50 entry on Cytochrome P450 2C9 was “inconclusive”; on Cytochrome P450 3A4, 3.98 µM (inconclusive).

Take `CCn1c(NC(=O)c2cccs2)nc2ccccc21`: the EC50 in [6] was 48.8 µM (active); in [7], 1.43 µM (active).

With `COc1ccc(N2C(=O)CSC2c2ccccc2)cc1` (stereo not given), in [1], the AC50 is 1.9 µM (active).

`COc1ccc2c(c1)-c1nc(/N=C/c3ccc(O)cc3)sc1CC2`: the EC50 in data set [15] is > 53 µM (inactive). Moreover, the IC50 in data set [16] was > 47.1 µM (inactive); in data set [5], > 50 µM (not active).

Consider `Cc1cc(/C=N/NC(N)=S)c(C)n1-c1cccc(Cl)c1`, for which the EC50 is > 150 µM (inconclusive) in [6], 0.984 µM (active) in [17], 3.69 µM (active) in data set [7] and > 60 µM (not active) in data set [18].

For the molecule `CCN1CCN(c2cc(C)c3cc(NC(=O)c4cncc(Br)c4)ccc3n2)CC1`, the values for the EC50 in [19] and in data set [20] were 13.9 µM (active) and 16.2 µM (active), respectively.
